Changes are numbered by the printed parent chain. In brackets after ≈: the same amount, converted by molar mass.
Experiments:
[1] = Inhibition of PTP-Meg2 (unknown origin); design: species or system Homo sapiens
[2] = target: T1, Low molecular weight phosphotyrosine protein phosphatase (Mus musculus, UniProt Q9D358); assay: Inhibition of N-terminal His-tagged full length mouse LMW-PTP expressed in Escherichia coli BL21(DE3) by […] analysis
T1 sequence (Q9D358 whole entry): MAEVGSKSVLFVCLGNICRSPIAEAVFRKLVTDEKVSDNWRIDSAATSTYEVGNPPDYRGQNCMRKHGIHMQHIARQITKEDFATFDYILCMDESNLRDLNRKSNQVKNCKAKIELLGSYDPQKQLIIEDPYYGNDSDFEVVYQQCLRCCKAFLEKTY

[3] = target: T2, Low molecular weight phosphotyrosine protein phosphatase (Homo sapiens, UniProt P24666); assay: Inhibition of His-tagged human LMW-PTP expressed in Escherichia coli BL21 using pNPP as substrate incubated for 10 mins by microplate reader based spectrophotometric analysis
T2 sequence (P24666 whole entry): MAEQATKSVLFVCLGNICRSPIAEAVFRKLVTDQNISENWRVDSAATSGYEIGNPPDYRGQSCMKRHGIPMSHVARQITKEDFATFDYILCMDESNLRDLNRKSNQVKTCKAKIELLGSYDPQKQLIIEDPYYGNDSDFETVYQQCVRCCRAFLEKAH

[4] = target: Dual specificity protein phosphatase 23 (Homo sapiens, UniProt Q9BVJ7); assay: Inhibition of VHZ (unknown origin)
[5] = Aqueous solubility of compound at pH 6 by HPLC analysis; format: physicochemical; conditions: buffer
CYP2D6 = CYP2D6 (Homo sapiens, UniProt P10635); assay: Inhibition of human hepatic CYP2D6 using bufuralol HCL as substrate measured after 3 mins by LC-MS analysis relative to control; format: ADME, tissue-based; design: concentration or dose not given beside the values; conditions: human hepatic CYP2D6 (liver), probe bufuralol HCl
CYP2C9 = CYP2C9 (Homo sapiens, UniProt P11712); assay: Inhibition of human hepatic CYP2C9 using diclofenac as substrate measured after 10 mins by LC-MS analysis relative to control; format: ADME, tissue-based; design: concentration or dose not given beside the values; conditions: human hepatic CYP2C9 (liver), probe diclofenac
CYP3A4 = CYP3A4 (Homo sapiens, UniProt P08684); assay: Inhibition of human hepatic CYP3A4 using midazolam as substrate measured after 3 mins by LC-MS analysis relative to control; format: ADME, tissue-based; design: concentration or dose not given beside the values; conditions: human hepatic CYP3A4 (liver), probe midazolam
[6] = Metabolic stability in human hepatic microsome at 4 uM measured after 30 mins by LC-MS analysis; format: ADME; conditions: liver microsomes, read-out: Stability
[7] = Metabolic stability in mouse hepatic microsome at 4 uM measured after 30 mins by LC-MS analysis; format: ADME; conditions: liver microsomes, read-out: Stability
[8] = Metabolic stability in dog hepatic microsome at 4 uM measured after 30 mins by LC-MS analysis; format: ADME, Canis lupus familiaris; conditions: liver microsomes, read-out: Stability
[9] = Plasma protein binding in mouse assessed as unbound fraction measured after 4.5 hrs by LC-MS/MS analysis; format: ADME, cell-free
[10] = AUC(0 to 8 hrs) in CD-1 mouse plasma at 10 mg/kg, po measured after 8 hrs by LC-MS/MS analysis; format: ADME, organism-based; design: dose 10 mg/kg, time 8 hrs, route po; conditions: in vivo
[11] = AUC(0 to 8 hrs) in CD-1 mouse plasma at 2 mg/kg, iv measured after 8 hrs by LC-MS/MS analysis; format: ADME, organism-based; design: dose 2 mg/kg, time 8 hrs, route iv; conditions: in vivo
[12] = Cmax in CD-1 mouse plasma at 10 mg/kg, po measured after 8 hrs by LC-MS/MS analysis; format: ADME, organism-based; design: dose 10 mg/kg, time 8 hrs, route po; conditions: CD-1, mouse, plasma
[13] = Cmax in CD-1 mouse plasma at 2 mg/kg, iv measured after 8 hrs by LC-MS/MS analysis; format: ADME, organism-based; design: time 8 hrs, dose 2 mg/kg, route iv
[14] = Unbound Cmax in plasma of CD-1 mouse at 10 mg/kg, po measured after 8 hrs by LC-MS/MS analysis; format: ADME, organism-based; conditions: in vivo
[15] = Unbound Cmax in plasma of CD-1 mouse at 2 mg/kg, iv measured after 8 hrs by LC-MS/MS analysis; format: ADME, organism-based; conditions: in vivo
[16] = Volume of distribution at steady state in CD-1 mouse plasma at 2 mg/kg, iv measured after 8 hrs by LC-MS/MS analysis; format: ADME, organism-based; conditions: in vivo
[17] = Half life in CD-1 mouse plasma at 2 mg/kg, iv measured after 8 hrs by LC-MS/MS analysis; format: ADME, organism-based; conditions: CD-1, mouse, plasma
[18] = Half life in CD-1 mouse plasma at 10 mg/kg, po measured after 8 hrs by LC-MS/MS analysis; format: ADME, organism-based; conditions: in vivo
[19] = Oral bioavailability in CD-1 mouse plasma at 10 mg/kg measured after 8 hrs by LC-MS/MS analysis; format: ADME, organism-based; conditions: mouse, in vivo, po, 10 mg/kg, 8 h
[20] = AUC(0 to 12 hrs) in Sprague-Dawley rat plasma at 30 mg/kg, po measured after 24 hrs by LC-MS/MS analysis; format: ADME, organism-based; design: time 24 hrs, dose 30 mg/kg, route po; conditions: in vivo
[21] = Cmax in Sprague-Dawley rat plasma at 30 mg/kg, po measured after 24 hrs by LC-MS/MS analysis; format: ADME, organism-based; design: time 24 hrs, dose 30 mg/kg, route po; conditions: in vivo
[22] = Unbound Cmax in plasma of Sprague-Dawley rat at 30 mg/kg, po measured after 24 hrs by LC-MS/MS analysis; format: ADME, organism-based; conditions: in vivo
[23] = Tmax in Sprague-Dawley rat plasma at 30 mg/kg, po measured after 24 hrs by LC-MS/MS analysis; format: ADME, organism-based; conditions: in vivo
[24] = Half life in Sprague-Dawley rat plasma at 30 mg/kg, po measured after 24 hrs by LC-MS/MS analysis; format: ADME, organism-based; conditions: in vivo
[25] = target: T3, Low molecular weight phosphotyrosine protein phosphatase (Rattus norvegicus, UniProt P41498); assay: Inhibition of N-terminal His-tagged full length rat LMW-PTP expressed in Escherichia coli BL21(DE3)
T3 sequence (P41498 whole entry): T1 sequence (Q9D358 whole entry) with K35N, R65K, K80R, Y158H

CYP2D6, sequence (P10635 whole entry): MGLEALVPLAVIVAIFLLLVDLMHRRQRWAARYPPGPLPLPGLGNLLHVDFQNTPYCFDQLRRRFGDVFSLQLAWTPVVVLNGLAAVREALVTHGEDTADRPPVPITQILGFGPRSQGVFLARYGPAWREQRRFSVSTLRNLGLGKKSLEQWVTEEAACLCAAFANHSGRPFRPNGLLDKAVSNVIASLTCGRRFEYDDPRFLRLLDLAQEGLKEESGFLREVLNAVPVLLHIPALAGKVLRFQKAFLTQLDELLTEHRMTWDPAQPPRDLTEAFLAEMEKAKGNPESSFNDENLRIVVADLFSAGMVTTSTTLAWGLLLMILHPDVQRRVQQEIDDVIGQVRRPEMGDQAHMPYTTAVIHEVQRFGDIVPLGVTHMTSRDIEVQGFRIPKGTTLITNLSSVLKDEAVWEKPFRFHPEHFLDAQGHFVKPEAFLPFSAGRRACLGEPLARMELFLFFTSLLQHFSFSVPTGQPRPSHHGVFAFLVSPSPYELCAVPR
CYP2C9, sequence (P11712 whole entry): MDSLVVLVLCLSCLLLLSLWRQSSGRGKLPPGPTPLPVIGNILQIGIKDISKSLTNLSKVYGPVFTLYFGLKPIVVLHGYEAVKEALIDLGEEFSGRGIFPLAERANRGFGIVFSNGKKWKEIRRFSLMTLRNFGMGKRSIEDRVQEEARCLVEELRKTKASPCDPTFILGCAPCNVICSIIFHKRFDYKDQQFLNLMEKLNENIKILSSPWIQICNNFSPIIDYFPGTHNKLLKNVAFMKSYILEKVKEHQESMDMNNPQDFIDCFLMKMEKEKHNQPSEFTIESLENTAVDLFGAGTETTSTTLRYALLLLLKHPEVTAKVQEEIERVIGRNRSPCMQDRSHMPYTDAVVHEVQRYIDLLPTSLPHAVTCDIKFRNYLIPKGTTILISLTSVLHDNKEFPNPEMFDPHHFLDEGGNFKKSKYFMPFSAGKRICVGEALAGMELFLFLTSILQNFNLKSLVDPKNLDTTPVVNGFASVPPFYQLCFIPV
CYP3A4, sequence (P08684 whole entry): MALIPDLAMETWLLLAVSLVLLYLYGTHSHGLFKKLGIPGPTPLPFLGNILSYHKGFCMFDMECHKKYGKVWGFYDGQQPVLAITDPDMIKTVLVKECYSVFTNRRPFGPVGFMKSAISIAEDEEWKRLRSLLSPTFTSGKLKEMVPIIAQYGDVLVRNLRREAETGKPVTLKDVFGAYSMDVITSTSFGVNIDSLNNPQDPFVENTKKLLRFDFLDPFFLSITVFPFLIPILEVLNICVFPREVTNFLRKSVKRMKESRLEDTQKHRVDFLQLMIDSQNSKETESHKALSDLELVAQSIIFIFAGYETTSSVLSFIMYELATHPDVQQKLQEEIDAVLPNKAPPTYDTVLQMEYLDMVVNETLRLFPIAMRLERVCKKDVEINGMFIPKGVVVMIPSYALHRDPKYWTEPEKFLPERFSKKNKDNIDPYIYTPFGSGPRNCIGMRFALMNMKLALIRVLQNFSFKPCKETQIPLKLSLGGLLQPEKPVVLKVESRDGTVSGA
Dual specificity protein phosphatase 23, sequence (Q9BVJ7 whole entry): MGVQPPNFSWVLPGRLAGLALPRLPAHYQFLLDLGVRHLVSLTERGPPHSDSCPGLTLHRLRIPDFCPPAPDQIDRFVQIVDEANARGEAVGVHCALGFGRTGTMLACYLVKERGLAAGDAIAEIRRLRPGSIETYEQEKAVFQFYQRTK

Molecule `Cc1c(Br)cc(NC(=O)CS(=O)(=O)O)cc1Br` has an IC50 [1] of over 100 µM, an IC50 [2] of 0.062 µM and an IC50 [3] of 2.2 µM. The IC50 [4] was over 100 µM, the solubility [5] was 740 µg/mL (≈ 1910 µM) and the inhibition at 0.05 h (CYP2D6) was 1%. For the same molecule, the inhibition at 10 min (CYP2C9) was 18%, the inhibition at 0.05 h (CYP3A4) was 15% and the remaining at 0.5 h, 4 µM [6] was 7%. The remaining at 0.5 h, 4 µM [7] was 0%, the remaining at 0.5 h, 4 µM [8] was 23% and the Fu [9] was under 0.008. For the same molecule, the AUC [10] was 8.8 µM·h, the AUC [11] was 4.1 µM·h and the Cmax [12] was 2000 nM. For the same molecule, the Cmax [13] was 2000 nM, the fCmax [14] was under 16 nM and the fCmax [15] was under 16 nM. For the same molecule, the Vdss [16] was 0.58 L/kg, the half-life [17] was 1.5 h and the t1/2 [18] was 4.2 h. The F [19] was 43%, the AUC [20] was 21.1 µM·h and the Cmax [21] was 3030 nM. For the same molecule, the fCmax [22] was under 85 nM, the Tmax [23] was 1.7 h and the t1/2 [24] was 3.6 h. The IC50 [25] was 0.062 µM.
